Data reported in patent US8394742B2, “Methods, compounds and compositions with genotype selective anticancer activity” (The Translation Genomics Research Institute, priority 2005, dated 2013).

Key:
BxPC-3-vector cells = assay: MTS based cell proliferation assay, BxPC-3-vector cells; parameters: species or system human; settings: BxPC-3-vector (BxPc3Vc, pMSCVneo empty vector), 4 days
Method: (§1) The inhibition of cell proliferation by library compounds was evaluated using the CellTiter 96 Non-Radioactive Cell Proliferation Assay following the protocol recommended by the manufacturer (Promega, Madison Wis.). Briefly, 2000 cells were seeded in each well of 96-well plates in 90 μl growth medium. Cells were allowed to attach overnight followed by addition of 10 μl of serially diluted compounds into the plates. After incubation for 4 days at 37° C. in a humidified incubator, 20 μl of a 20:1 mixture of (3-(4,5-dimethylthiazol-2-yl)-5-(3-carboxymethoxyphenyl)-2-(4-sulfophenyl)-2H-tetrazolium, inner salt (MTS, 2 mg/ml) and an electron coupling reagent, phenazine methosulfate (PMS, 0.92 mg/ml), was added to each well and incubated for 3 hours at 37° C. Absorbance was then measured using the Wallace Victor microplate reader at 490 nm (PerkinElmer, Wellesley, Mass.). Data were expressed as the percentage of cell growth calculated from the absorbance corrected for background absorbance. The surviving fraction of cells was determined by dividing the mean absorbance values of the treated samples by the mean absorbance values of the DMSO control.
(§2) After generating the isogenic cell lines for the DPC4 gene, Applicants then carried out a screening process using the cell lines with the aim to identify compounds that selectively kill cells with deficient DPC4 function. […]

BxPC-3-DPC4 cells = assay: MTS based cell proliferation assay, BxPC-3-DPC4 cells; parameters: species or system human; settings: for IC50: BxPC-3-DPC4 (reexpression of wild-type DPC4), MTS, 4 days
Method: as §1
After generating the isogenic cell lines for the DPC4 gene, Applicants then carried out a screening process using the cell lines with the aim to identify compounds that selectively kill cells with deficient DPC4 function. […] In each round, the anti-proliferative activity of compounds was evaluated in different cell lines using the CellTiter 96 Non-Radioactive Cell Proliferation Assay (Promega). In the Toxicity Screen, compounds were evaluated in the BxPC-3 parental cell line at a single concentration of 10 μM. […] The activities of a compound in the DPC4 isogenic cell lines were calculated and a selectivity index was determined for each concentration (Selectivity index=Percentage cell survival in BxPC-3-DPC4 cells/Percentage cell survival in BxPC-3-vector cells). […] These ten compounds were further evaluated in third round of screening, the Selectivity screening. […]

HPDE6 (wild-type DPC4) = assay: MTS cell proliferation assay, HPDE6 cells; type: cell-based; settings: Homo sapiens
Method: At the initial screening, compounds are tested in the MTS assay (or other cell proliferation assays such as SRB and Alamar Blue) against the cell line in which the specific gene is either deleted or suppressed by siRNA at a single dose of 10 μM (Toxicity Screening).
Compounds that show more than 50% cell growth inhibition at this concentration are selected to test against both isogenic cell lines (loss-of-function vs. wild type) at three different concentrations (10, 2 and 0.4 μM, Synthetic lethal Screening). Compounds that show a selectivity index ≧5 are selected for next round of screening—Selectivity Screening.
In the Selectivity Screening, compounds are tested against cancer cell lines with a specific loss-of-function mutation and normal cells (HPDE6 and FORF-TERT). Depending on their approximate potency assessed in the Synthetic lethal Screening, compounds are tested in a range of concentrations (8 concentrations per agent) in Selectivity Screening. Compounds that have nM IC50 values in loss-of-function cells and selectivity index values >10 are selected for phenotypic consequence tests and in vivo evaluations in animal models.
The inhibition of cell proliferation by library compounds was evaluated using the CellTiter 96 Non-Radioactive Cell Proliferation Assay following the protocol recommended by the manufacturer (Promega, Madison Wis.). […]

Panc-1 (DPC4 wildtype) = assay: MTS cell proliferation assay, Panc-1 cells; type: cell-based; settings: Homo sapiens
Method: as §1, §2

[1] = system: pancreatic cancer cell lines; assay: MTS cell proliferation assay, panel of pancreatic cancer cell lines; type: cell-based, human
Method: as §1
Applicants further examined the anti-proliferative activity of UA62001 in a panel of cell lines including normal cell lines which have wildtype DPC4 and pancreatic cancer lines with either wildtype DPC4 or inactivated DPC4 (Table 1). […]

## O=C1c2ccccc2C(=O)c2c1ccc1c(=O)n(-c3ccccc3)[nH]c21 [UA62001, 2-phenyl-1H-Naphth [2,3-g]indazole-3,6,11(2H)-trione]
BxPC-3-vector cells
  IC50: 3.2 ± 0.45 µM
BxPC-3-vector cells; Homo sapiens, 96 h
  IC50: 3 µM
BxPC-3-DPC4 cells
  IC50: 14.7 ± 4.3 µM
BxPC-3-DPC4 cells; Homo sapiens, 96 h
  IC50: 25 µM
BxPC-3-DPC4 cells; two more stable clones, compared with the original clone
  IC50 values in two more stable clones of BxPC-3-DPC4 cells: very similar to that in the original clone
HPDE6 (wild-type DPC4)
  IC50: > 100 µM
Panc-1 (DPC4 wildtype)
  IC50: 26 µM
[1]
  IC50 values in pancreatic cancer cell lines: low μM
